According to patent publication US9700044B2, “Symmetrical marinopyrrole derivatives as potential antibiotic agents” (priority 2013, dated 2017):
≈ marks a conversion by molar mass, not a printed value. Like-named read-outs stand apart in the source and are kept apart here.

Assays:
[1] = test system: Moderately vancomycin-resistant Enterococci faecium with the VanA gene (WHO-3); assay: MIC by agar dilution, VRE (WHO-3); assay type: cell-based
Excerpt: (§1) A panel of multiple resistance Gram-positive and Gram-negative pathogens listed in Tables 1 and 2 was used to evaluate the antimicrobial activity of marinopyrrole derivatives (Chart 1) with vancomycin as a positive control. Except for those marked with WHO, all pathogens were isolated between 2008 and 2010 in hospitals located in Beijing; Guangzhou; Sichuan, Shandong and Jiangsu Province. Determination of the minimum inhibitory concentration (MIC) was done by the guidelines of the Clinical and Laboratory Standards Institute (Clinical and Laboratory Standards Institute, Performance standards for antimicrobial susceptibility testing, seventeenth informational supplement. 2007, 27, M100-S17). The susceptibility tests of a bacterial strain to a marinopyrrole derivative were performed by an agar dilution method. Briefly, each sterile petri dish contained a final volume of 15 mL comprising 1 mL of a marinopyrrole derivative and 14 mL of Mueller-Hinton broth. The concentrations of a marinopyrrole derivative are 128, 64, 32, 16, 8, 4, 2, 1, 0.5, 0.25, 0.125, 0.06, 0.03, 0.015 and 0.008 μg/mL. The petri dish containing the broth with different concentration of antibiotics was first inoculated with 10^5 CFU/mL (Denley A400, United Kingdom) and the culture was then incubated with shaking at 35-37° C. for 18-20 h. The potency of the compound was determined and expressed as minimum inhibitory concentration (MIC) in μg/mL. The MIC was determined as the lowest concentration of antibiotic that inhibited visible bacterial growth.

[2] = test system: Methicillin-susceptible Staphylococcus aureus (MSSA); assay: MIC by agar dilution, MSSA clinical isolates; assay type: cell-based; conditions: MSSA
Excerpt: as §1

[3] = test system: Methicillin-resistant Staphylococcus aureus (MRSA); assay: MIC by agar dilution, MRSA clinical isolates; assay type: cell-based; conditions: for MIC: MRSA
Excerpt: as §1

[4] = test system: Methicillin-resistant Staphylococcus epidermidis (MRSE); assay: MIC by agar dilution, MRSE clinical isolates; assay type: cell-based; conditions: for MIC: MRSE
Excerpt: as §1

[5] = test system: Oxacillin-resistant Staphylococcus aureus (WHO-25); assay: MIC by agar dilution, ORSA (WHO-25); assay type: cell-based
Excerpt: as §1

[6] = test system: Methicillin-resistant Staphylococcus aureus with the mec A gene and PBP2a (WHO-31); assay: MIC by agar dilution, MRSA (WHO-31); assay type: cell-based
Excerpt: as §1

[7] = test system: Highly vancomycin-resistant Enterococci faecalis (VRE); assay: MIC by agar dilution, highly resistant VRE; assay type: cell-based
Excerpt: as §1

[8] = test system: K. penumonia; assay: MIC by agar dilution, K. penumonia; assay type: cell-based, K. pneumonia
Excerpt: as §1

[9] = test system: P. aeruginosa; assay: MIC by agar dilution, P. aeruginosa; assay type: cell-based
Excerpt: as §1

[10] = test system: E. coli; assay: MIC by agar dilution, E. coli; assay type: cell-based
Excerpt: as §1

[11] = Staphylococcus aureus, Table 3, data from 8 isolates, read-out: MIC
[12] = Staphylococcus aureus, Table 1, 10 isolates
[13] = Staphylococcus aureus, Table 2, data from 8 isolates
[14] = Staphylococcus aureus, Table 3, data from 8 isolates
[15] = Staphylococcus aureus, Table 2, data from 8 isolates, read-out: MIC
[16] = Staphylococcus epidermidis, Table 2, data from 4 isolates, read-out: MIC
[17] = Enterococcus, Table 2, WHO-3, read-out: MIC
[18] = Staphylococcus aureus, Table 2, WHO-25, read-out: MIC
[19] = Staphylococcus aureus, Table 2, WHO-31, read-out: MIC

Question: For O=C(c1ccccc1O)c1[nH]c(Cl)c(Cl)c1-n1c(C(=O)c2ccccc2O)cc(Cl)c1Cl (racemic) [Compound 1, marinopyrrole A, reference compound], which “higher potency than vancomycin (fold)” value ([1]; against moderately resistant VRE (Table 1)) is on record?
Answer: 128-256 fold

Question: How did the MIC [2, 11] turn out when Cc1cc(O)c(C(=O)c2[nH]c(Cl)c(Cl)c2-n2c(C(=O)c3cc(Cl)c(C)cc3O)cc(Cl)c2Cl)cc1Cl [CCW14] was run?
Answer: 1 µg/mL (≈ 1.65 µM)

Question: And the MIC [3, 11]?
Answer: 1 µg/mL (≈ 1.65 µM)

Question: What about the MIC ([4]; Staphylococcus epidermidis, Table 3, data from 4 isolates, read-out: MIC) of the same compound?
Answer: 1 µg/mL (≈ 1.65 µM)

Question: What about the MIC ([1]; Enterococcus, Table 3, WHO-3, read-out: MIC) of the same compound?
Answer: 4 µg/mL (≈ 6.59 µM)

Question: And the MIC ([5]; Staphylococcus aureus, Table 3, WHO-25, read-out: MIC)?
Answer: 4 µg/mL (≈ 6.59 µM)

Question: What about the MIC ([6]; Staphylococcus aureus, Table 3, WHO-31, read-out: MIC) of the same compound?
Answer: 1 µg/mL (≈ 1.65 µM)

Question: For O=C(c1ccccc1O)c1[nH]c(Cl)c(Cl)c1-n1c(C(=O)c2ccccc2O)cc(Cl)c1Cl [Compound 1, marinopyrrole A, reference compound], which MIC [2, 12] is on record?
Answer: 0.5 to 1 µg/mL (≈ 0.98 to 1.96 µM)

Question: What about the MIC [2, 13] of the same compound?
Answer: 0.5 µg/mL (≈ 0.98 µM)

Question: And the MIC [2, 14]?
Answer: 0.5 µg/mL (≈ 0.98 µM)

Question: And the MIC [3, 12]?
Answer: 1 µg/mL (≈ 1.96 µM)

Question: What about the MIC [3, 13] of the same compound?
Answer: 0.5 to 1 µg/mL (≈ 0.98 to 1.96 µM)

Question: What about the MIC [3, 14] of the same compound?
Answer: 0.5 to 1 µg/mL (≈ 0.98 to 1.96 µM)

Question: And the MIC ([4]; Staphylococcus epidermidis, Table 1, 3 isolates)?
Answer: 0.06 to 1 µg/mL (≈ 0.118 to 1.96 µM)

Question: What about the MIC ([4]; Staphylococcus epidermidis, Table 2, data from 4 isolates) of the same compound?
Answer: 0.25 µg/mL (≈ 0.49 µM)

Question: What about the MIC ([4]; Staphylococcus epidermidis, Table 3, data from 4 isolates) of the same compound?
Answer: 0.25 µg/mL (≈ 0.49 µM)

Question: What about the MIC ([1]; Enterococcus) of the same compound?
Answer: 1 µg/mL (≈ 1.96 µM)

Question: What about the MIC ([1]; Enterococcus, VRE) of the same compound?
Answer: 0.5 to 1 µg/mL (≈ 0.98 to 1.96 µM)

Question: And the MIC ([1]; Table 3, WHO-3)?
Answer: 1 µg/mL (≈ 1.96 µM)

Question: What about the MIC ([5]; Staphylococcus aureus, Table 1, ORSA (WHO-25), 1 isolate) of the same compound?
Answer: 1 µg/mL (≈ 1.96 µM)

Question: And the MIC ([5]; Staphylococcus aureus, Table 3, WHO-25)?
Answer: 1 µg/mL (≈ 1.96 µM)

Question: And the MIC ([5]; Staphylococcus aureus, Table 2, WHO-25)?
Answer: 1 µg/mL (≈ 1.96 µM)

Question: And the MIC ([6]; Staphylococcus aureus)?
Answer: 1 µg/mL (≈ 1.96 µM)

Question: And the MIC ([6]; Staphylococcus aureus, MRSA)?
Answer: 1 µg/mL (≈ 1.96 µM)

Question: What about the MIC ([6]; Table 3, WHO-31) of the same compound?
Answer: 1 µg/mL (≈ 1.96 µM)

Question: What about the MIC [7] of the same compound?
Answer: 16 to 128 µg/mL (≈ 31.4 to 251 µM)

Question: And the MIC ([8]; Klebsiella pneumoniae)?
Answer: > 128 µg/mL

Question: And the MIC ([9]; Pseudomonas aeruginosa)?
Answer: > 128 µg/mL

Question: What about the MIC ([10]; Escherichia coli) of the same compound?
Answer: > 128 µg/mL

Question: For COc1ccccc1C(=O)c1[nH]c(Cl)c(Cl)c1-n1c(C(=O)c2ccccc2OC)cc(Cl)c1Cl [Compound 1c], which MIC ([2]; Table 1, 10 isolates) is on record?
Answer: 4 to 16 µg/mL

Question: What about the MIC ([3]; Table 1, 10 isolates) of the same compound?
Answer: 4 to 16 µg/mL

Question: And the MIC ([4]; Table 1, 3 isolates)?
Answer: 2 to 4 µg/mL

Question: And the MIC ([1]; Table 1, VRE (WHO-3), 1 isolate)?
Answer: 2 µg/mL (≈ 3.72 µM)

Question: What about the MIC ([5]; Table 1, ORSA (WHO-25), 1 isolate) of the same compound?
Answer: 8 µg/mL (≈ 14.9 µM)

Question: What about the MIC ([6]; Table 1, MRSA (WHO-31), 1 isolate) of the same compound?
Answer: 4 µg/mL (≈ 7.43 µM)

Question: What about the MIC ([7]; Table 1, VRE (highly vancomycin-resistant E. faecalis), 2 isolates) of the same compound?
Answer: >128 µg/mL

Question: What about the MIC ([8]; Table 1, K. penumonia, 4 isolates, value over three Gram-negative pathogens) of the same compound?
Answer: >128 µg/mL

Question: And the MIC ([9]; Table 1, P. aeruginosa, 4 isolates, value over three Gram-negative pathogens)?
Answer: >128 µg/mL

Question: And the MIC ([10]; Table 1, E. coli, 4 isolates, value over three Gram-negative pathogens)?
Answer: >128 µg/mL

Question: Which results are given for O=C(c1cc(Cl)c(O)cc1O)c1[nH]c(Cl)c(Cl)c1-n1c(C(=O)c2cc(Cl)c(O)cc2O)cc(Cl)c1Cl [Compound 19, (4,4′,5,5′-Tetrachloro-1′H-1,3′-bipyrrole-2,2′-diyl)bis((5-chloro-2,4-dihydroxyphenyl)methanone)]?
Answer: MIC [2, 15]: 32 µg/mL (≈ 52.4 µM); MIC [3, 15]: 32 µg/mL (≈ 52.4 µM); fold decreased potency compared with compound 1m ([3]; against MRSA): 4-16 fold; MIC [4, 16]: 4 to 8 µg/mL (≈ 6.55 to 13.1 µM); fold decreased potency compared with compound 1m ([4]; against MRSE): 2-16 fold; MIC [1, 17]: 4 µg/mL (≈ 6.55 µM); MIC [5, 18]: 8 µg/mL (≈ 13.1 µM); MIC [6, 19]: 8 µg/mL (≈ 13.1 µM)

Question: For O=C(c1ccc(O)cc1O)c1[nH]c(Cl)c(Cl)c1-n1c(C(=O)c2ccc(O)cc2O)cc(Cl)c1Cl [Compound 24, (4,4′,5,5′-Tetrachloro-1′H-1,3′-bipyrrole-2,2′-diyl)bis((2,4-dihydroxyphenyl)methanone)], which MIC [2, 15] is on record?
Answer: 2 µg/mL (≈ 3.69 µM)

Question: And the MIC [3, 15]?
Answer: 2 µg/mL (≈ 3.69 µM)

Question: And the MIC [4, 16]?
Answer: 2 to 8 µg/mL (≈ 3.69 to 14.8 µM)

Question: And the MIC [1, 17]?
Answer: 4 µg/mL (≈ 7.38 µM)

Question: What about the MIC [5, 18] of the same compound?
Answer: 4 µg/mL (≈ 7.38 µM)

Question: What about the MIC [6, 19] of the same compound?
Answer: 2 µg/mL (≈ 3.69 µM)

Question: Which MIC ([2]; Table 2, data from 8 isolates) does the source give for CCOC(=O)CSc1ccc(C(=O)c2[nH]c(Cl)c(Cl)c2-n2c(C(=O)c3ccc(SCC(=O)OCC)cc3O)cc(Cl)c2Cl)c(O)c1 [Compound 25] here?
Answer: 64 µg/mL (≈ 85.7 µM)

Question: What about the MIC ([3]; Table 2, data from 8 isolates) of the same compound?
Answer: 32 to 64 µg/mL

Question: What about the MIC ([4]; Table 2, data from 4 isolates) of the same compound?
Answer: 8 µg/mL (≈ 10.7 µM)

Question: What about the MIC ([1]; Table 2, WHO-3) of the same compound?
Answer: 2 µg/mL (≈ 2.68 µM)

Question: And the MIC ([5]; Table 2, WHO-25)?
Answer: 64 µg/mL (≈ 85.7 µM)

Question: What about the MIC ([6]; Table 2, WHO-31) of the same compound?
Answer: 16 µg/mL (≈ 21.4 µM)
